Measured values: ChEMBL document CHEMBL2429827, “Pharmacological evaluation of some novel synthesized compounds derived from spiro(cyclohexane-1,2-thiazolidines)” (2013)
Converted amounts (≈) assume the structure as drawn. The source made the active and inactive calls. The rule behind the calls is not given here.

Tests used:
[1] = tested on: Staphylococcus aureus; assay: Antibacterial activity against Staphylococcus aureus NRRL B-313 after 24 hrs by agar diffusion method; type: functional, organism-based
[2] = tested on: Aspergillus niger; assay: Antifungal activity against Aspergillus niger after 24 hrs by agar diffusion method; type: functional, organism-based
[3] = tested on: Candida albicans; assay: Antifungal activity against Candida albicans NRRL Y-477 after 24 hrs by agar diffusion method; type: functional, organism-based
[4] = tested on: Bacillus subtilis; assay: Antibacterial activity against Bacillus subtilis NRRL B-543 after 24 hrs by agar diffusion method; type: functional, organism-based
[5] = tested on: Escherichia coli; assay: Antibacterial activity against Escherichia coli NRRL B-210 after 24 hrs by agar diffusion method; type: functional, organism-based
[6] = tested on: MCF7; assay: Cytotoxicity against human MCF7 cells at 100 ug/ml after 72 hrs by SRB assay; type: functional
[7] = tested on: Radical scavenging activity; assay: Antioxidant activity assessed as DPPH radical scavenging activity at 100 ug/ml after 30 mins by spectroscopic analysis; type: functional
[8] = tested on: Radical scavenging activity; assay: Antioxidant activity assessed as DPPH radical scavenging activity at 50 ug/ml after 30 mins by spectroscopic analysis; type: functional
[9] = tested on: HepG2; assay: Cytotoxicity against human HepG2 cells at 100 ug/ml after 72 hrs by SRB assay; type: functional
[10] = tested on: Candida albicans; assay: Antifungal activity against Candida albicans NRRL Y-477 after 48 hrs by two-fold serial dilution technique; type: functional; settings: NRRL Y-477, 48 h
[11] = tested on: Aspergillus niger; assay: Antifungal activity against Aspergillus niger after 48 hrs by two-fold serial dilution technique; type: functional
[12] = tested on: Escherichia coli; assay: Bacteriostatic activity against Escherichia coli NRRL B-210 after 24 hrs by two-fold serial dilution technique; type: functional; settings: NRRL B-210, 24 h
[13] = tested on: Bacillus subtilis; assay: Bacteriostatic activity against Bacillus subtilis NRRL B-543 after 24 hrs by two-fold serial dilution technique; type: functional; settings: NRRL B-543, 24 h
[14] = tested on: Staphylococcus aureus; assay: Bacteriostatic activity against Staphylococcus aureus NRRL B-313 after 24 hrs by two-fold serial dilution technique; type: functional; settings: NRRL B-313, 24 h

MIC [10]	MIC [11]	MIC [12]	MIC [13]	MIC [14]	SMILES	Activity [1]	Activity [2]	Activity [3]	Activity [4]	Activity [5]	Activity [6]	Activity [7]	Activity [8]	Activity [9]
–	–	–	–	–	NS(=O)(=O)c1ccc(/N=C2\CSC3(CCCCC3)N2c2ccc(F)cc2)cc1	Active	inactive	Active	Active	inactive	–	–	–	–
–	–	–	–	–	Cc1ccc(-c2c3c(nc4nc(C)[nH]c(=O)c24)N(c2ccc(F)cc2)C2(CCCCC2)S3)cc1	–	–	–	–	–	84%	92.5%	65%	78.85%
0.125 µg/mL (≈ 0.471 µM)	0.125 µg/mL (≈ 0.471 µM)	0.125 µg/mL (≈ 0.471 µM)	0.125 µg/mL (≈ 0.471 µM)	0.15 µg/mL (≈ 0.565 µM)	O=C1CSC2(CCCCC2)N1c1ccc(F)cc1	Active	Active	Active	Active	Active	–	–	–	–
0.45 µg/mL (≈ 1.09 µM)	0.3 µg/mL (≈ 0.724 µM)	–	0.175 µg/mL (≈ 0.422 µM)	0.175 µg/mL (≈ 0.422 µM)	O=C1/C(=N\Nc2ccc([N+](=O)[O-])cc2)SC2(CCCCC2)N1c1ccc(F)cc1	Active	inactive	Active	Active	inactive	–	–	–	–
–	–	–	–	–	CC(=O)Nc1nc2c(c(-c3ccc(C)cc3)c1C#N)SC1(CCCCC1)N2c1ccc(F)cc1	–	–	–	–	–	65%	79.8%	49.9%	50.63%
0.2 µg/mL (≈ 0.613 µM)	–	0.2 µg/mL (≈ 0.613 µM)	0.2 µg/mL (≈ 0.613 µM)	0.3 µg/mL (≈ 0.92 µM)	O=C1CSC2(CCCCC2)N1c1ccc(Br)cc1	Active	Active	Active	Active	Active	–	–	–	–
–	–	–	–	–	Cc1ccc(-c2c3c(nc4[nH]c(=S)[nH]c(=S)c24)N(c2ccc(F)cc2)C2(CCCCC2)S3)cc1	–	–	–	–	–	64.2%	84.6%	60%	50.21%
–	–	–	–	–	O=C1/C(=C\c2ccc(Cl)cc2)SC2(CCCCC2)N1c1ccc(Br)cc1	inactive	inactive	Active	Active	inactive	–	–	–	–
–	–	–	–	–	Cc1ccc(/C=C2/SC3(CCCCC3)N(c3ccc(F)cc3)C2=O)cc1	–	–	–	–	–	61.2%	66.8%	41.1%	50.32%
–	–	–	–	–	Cc1ccc(C2NOC3=C2SC2(CCCCC2)N3c2ccc(F)cc2)cc1 (centres undefined)	inactive	inactive	Active	inactive	inactive	56.62%	60.5%	41%	45.6%
0.435 µg/mL (≈ 1.56 µM)	0.45 µg/mL (≈ 1.61 µM)	–	0.4 µg/mL (≈ 1.43 µM)	0.4 µg/mL (≈ 1.43 µM)	N/N=C1\CSC2(CCCCC2)N1c1ccc(F)cc1	Active	Active	Active	Active	inactive	–	–	–	–
–	–	–	–	–	Cc1ccc(-c2c(C#N)c(N)nc3c2SC2(CCCCC2)N3c2ccc(F)cc2)cc1	Active	inactive	Active	inactive	inactive	55.84%	85%	54.6%	45%
–	–	–	–	–	Cc1ccc(-c2c3c(nc4[nH]c(=S)nc(NN)c24)N(c2ccc(F)cc2)C2(CCCCC2)S3)cc1	–	–	–	–	–	45.62%	78.2%	50.2%	15.65%
–	–	–	–	–	O=C1/C(=C\c2ccc(Cl)cc2)SC2(CCCCC2)N1c1ccc(F)cc1	inactive	inactive	Active	inactive	Active	–	–	–	–
0.2 µg/mL (≈ 0.462 µM)	0.3 µg/mL (≈ 0.694 µM)	–	0.12 µg/mL (≈ 0.277 µM)	0.125 µg/mL (≈ 0.289 µM)	Cc1ccc(-c2c3c(oc(=O)c2C#N)N(c2ccc(F)cc2)C2(CCCCC2)S3)cc1	Active	Active	Active	Active	inactive	–	–	–	–
–	–	–	–	–	Fc1ccc(N2/C(=N/Nc3ccccc3)CSC23CCCCC3)cc1	Active	inactive	Active	inactive	inactive	–	–	–	–
